Data: patent US7501430B2 (ArQule, Inc., priority 2006, dated 2009)
Where two headings read alike, the source gives them in different places.

Target: T1, mutant B-RAF (Homo sapiens, UniProt P15056, V600E)
T1 construct: purchased Upstate (Charlottesville, Va.)
Assay: RAF biochemical assay (MEK-1 phosphorylation, anti-phospho MEK1/2 detection)
Conditions: for inhibition at 10 µM: read-out: Mutant B-RAF % inhibition; for IC50: read-out: Mutant B-RAF IC50
Procedure: Materials: The RAF kinases and the anti-phospho MEK1/2 antibody were from Upstate (Charlottesville, Va.). The RAF substrate used was full length N-terminal GST-MEK-1, which was expressed in E. coli and purified in-house by HPLC. All proteins were aliquoted and stored at −80° C.
Compounds were serially diluted in assay buffer containing 1% DMSO and 20 μL of test compound at a concentration 3-fold more than the final concentration, and were added to a polypropylene V-well reaction plate. Vehicle control wells received buffer only with DMSO at equivalent concentrations to the test wells. […] These reaction plates were incubated at room temperature for 30 minutes. Capture of MEK-1 was initiated by transferring 50 μl of the reaction mixture to a Nunc Maxisorp™ microplate that is designed for non-specific protein capture. After 30 minute capture of MEK-1 at room temperature, this plate was washed with TBST (6×200 μL/well) to fully terminate the reaction. The plate was then blocked for 1 hour by the addition of 100 μl/well of Superblock™ in phosphate buffered saline (PBS) blocking reagent. Plate was again washed with TBST (6 times with 200 μL/well), followed by the addition of 70 μL/well of Upstate anti-phospho MEK 1/2 diluted 1:1000 in Pierce Superblock (PBS). After a 60 minute incubation, this plate was washed with TBST (6 times with 200 μL/well), and 70 μL of the secondary antibody (Pierce Alkaline Phosphatase tagged goat anti-rabbit) prepared at 1:4000 in Superblock, were added. After a 45 minute incubation at room temperature, the wells of the microplate were washed with TBST (6 times with 200 μL/well), and thereafter 100 μl/well of Attophos™ fluorescent alkaline phosphatase substrate was added according to the manufacturer's instructions (JBL Scientific).

T1 sequence (P15056 whole entry V600E): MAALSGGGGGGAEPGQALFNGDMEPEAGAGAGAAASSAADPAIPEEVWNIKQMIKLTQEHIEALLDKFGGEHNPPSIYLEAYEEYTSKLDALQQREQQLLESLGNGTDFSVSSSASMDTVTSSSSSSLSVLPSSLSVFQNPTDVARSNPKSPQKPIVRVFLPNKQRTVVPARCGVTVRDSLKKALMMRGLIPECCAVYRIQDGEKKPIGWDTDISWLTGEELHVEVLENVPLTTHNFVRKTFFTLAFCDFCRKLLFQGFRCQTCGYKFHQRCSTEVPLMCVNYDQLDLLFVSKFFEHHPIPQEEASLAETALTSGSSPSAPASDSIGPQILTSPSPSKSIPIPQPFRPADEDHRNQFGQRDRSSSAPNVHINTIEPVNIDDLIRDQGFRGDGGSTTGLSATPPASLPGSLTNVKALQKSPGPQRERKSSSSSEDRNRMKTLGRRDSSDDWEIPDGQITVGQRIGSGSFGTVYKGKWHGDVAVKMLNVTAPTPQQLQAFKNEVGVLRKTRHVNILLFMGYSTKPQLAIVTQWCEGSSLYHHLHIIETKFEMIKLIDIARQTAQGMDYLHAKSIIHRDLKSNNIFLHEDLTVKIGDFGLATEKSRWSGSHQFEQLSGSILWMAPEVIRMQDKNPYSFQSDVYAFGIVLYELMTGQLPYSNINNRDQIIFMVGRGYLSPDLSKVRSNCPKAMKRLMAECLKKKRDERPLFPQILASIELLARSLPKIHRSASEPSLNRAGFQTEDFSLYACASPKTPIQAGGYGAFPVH

SMILES	inhibition at 10 µM (@ 10 uM)	IC50	also measured
O=C(Nc1ccc(F)c(F)c1)N1CCC[C@@H](Nc2nccc(-c3c(-c4ccc(F)cc4)nc4occn34)n2)C1 [Example 73, (3R)-N-(3,4-difluorophenyl)-3-({4-[6-(4-fluorophenyl)imidazo[2,1-b][1,3]oxazol-5-yl]pyrimidin-2-yl}amino)piperidine-1-carboxamide]	37%		
O=C(Nc1ccccc1F)N1CCC[C@@H](Nc2nccc(-c3c(-c4ccc(F)cc4)nc4occn34)n2)C1 [Example 74, (3R)-N-(2-fluorophenyl)-3-({4-[6-(4-fluorophenyl)imidazo[2,1-b][1,3]oxazol-5-yl]pyrimidin-2-yl}amino)piperidine-1-carboxamide]	35%		
COc1cc([N+](=O)[O-])ccc1NC(=O)N1CCC[C@@H](Nc2nccc(-c3c(-c4ccc(F)cc4)nc4occn34)n2)C1 [Example 75, (3R)-3-({4-[6-(4-fluorophenyl)imidazo[2,1-b][1,3]oxazol-5-yl]pyrimidin-2-yl}amino)-N-(2-methoxy-4-nitrophenyl)piperidine-1-carboxamide]		> 10000 nM	
O=C(NCc1ccc(F)cc1)N1CCC[C@@H](Nc2nccc(-c3c(-c4ccc(F)cc4)nc4occn34)n2)C1 [Example 76, (3R)-N-(4-fluorobenzyl)-3-({4-[6-(4-fluorophenyl)imidazo[2,1-b][1,3]oxazol-5-yl]pyrimidin-2-yl}amino)piperidine-1-carboxamide]	36%		
COc1cccc(-c2nc3sccn3c2-c2ccnc(N[C@@H]3CCCNC3)n2)c1 [Example 77, 4-[6-(3-methoxyphenyl)imidazo[2,1-b][1,3]thiazol-5-yl]-N-[(3R)-piperidin-3-yl]pyrimidin-2-amine]		1810 nM	
Fc1ccc(-c2nc3sccn3c2-c2ccnc(N[C@@H]3CCCNC3)n2)cc1F [Example 78, 4-[6-(3,4-difluorophenyl)imidazo[2,1-b][1,3]thiazol-5-yl]-N-[(3R)-piperidin-3-yl]pyrimidin-2-amine]		1260 nM	
Cc1cn2c(-c3ccnc(N[C@@H]4CCCNC4)n3)c(-c3ccc(F)cc3)nc2s1 [Example 79, 4-[6-(4-fluorophenyl)-2-methylimidazo[2,1-b][1,3]thiazol-5-yl]-N-((3R)-piper-idin-3-yl]pyrimidin-2-amine]	67%		
COc1cccc(-c2nc3sccn3c2-c2ccnc(N[C@@H]3CCCN(C(=O)NCc4ccccc4)C3)n2)c1 [Example 80, (3R)-N-benzyl-3-({4-[6-(3-methoxyphenyl)imidazo[2,1-b][1,3]thiazol-5-yl]pyrimidin-2-yl}amino)piperidine-1-carboxamide]	40%		
COc1cccc(-c2nc3sccn3c2-c2ccnc(N[C@@H]3CCCN(C(=O)NCc4ccco4)C3)n2)c1 [Example 81, (3R)-N-(2-furylmethyl)-3-({4-[6-(3-methoxyphenyl)imi-dazo[2,1-b][1,3]thiazol-5-yl]pyrimidin-2-yl}amino)piperidine-1-carboxamide]			inhibition at 10 µM: 50%
COc1cccc(-c2nc3sccn3c2-c2ccnc(N[C@@H]3CCCN(S(=O)(=O)c4ccc(F)cc4)C3)n2)c1 [Example 82, N-{(3R)-1-[(4-fluorophenyl)sulfonyl]piper-idin-3-yl}-4-(6-(3-methoxyphenyl)imidazo[2,1-b][1,3]thiazot-5-yl]pyrimidin-2-amine]		192 nM	
COc1ccc(C(=O)N2CCC[C@@H](Nc3nccc(-c4c(-c5cccc(OC)c5)nc5sccn45)n3)C2)cc1 [Example 83, N-[(3R)-1-(4-methoxybenzoyl)piperidin-3-yl]-4-[6-(3-methoxyphenyl)imidazo[2,1-b][1,3]thiazol-5-yl]pyrimidin-2-amine]		> 3000 nM	
COc1cccc(-c2nc3sccn3c2-c2ccnc(N[C@@H]3CCCN(C(=O)Nc4ccc(N(C)C)cc4)C3)n2)c1 [Example 84, (3R)-N-[4-(dimethylamino)phenyl]-3-({4-[6-(3-methoxyphenyl)imi-dazo[2,1-b][1,3]thiazol-5-yl]pyrimidin-2-yl}amino)piperidine-1-carboxamide]			inhibition at 10 µM: 19%
O=S(=O)(c1ccc(F)cc1)N1CCC[C@@H](Nc2nccc(-c3c(-c4ccc(F)c(F)c4)nc4sccn34)n2)C1 [Example 85, 4-[6-(3,4-difluorophenyl)imidazo[2,1-b][1,3]thiazol-5-yl]-N-{(3R)-1-[(4-fluorophenyl)sulfonyl]piperidin-3-yl}pyrimidin-2-amine]		58 nM	
CN(C)c1ccc(NC(=O)N2CCC[C@@H](Nc3nccc(-c4c(-c5ccc(F)c(F)c5)nc5sccn45)n3)C2)cc1 [Example 86, (3R)-3-({4-[6-(3,4-difluorophenyl)imidazo[2,1-b][1,3]thiazol-5-yl]pyrimidin-2-yl}amino)-N-[4-(dimethylamino)phenyl]pip-eridine-1-carboxamide]	54%		
O=C(NCc1ccccc1)N1CCC[C@@H](Nc2nccc(-c3c(-c4ccc(F)c(F)c4)nc4sccn34)n2)C1 [Example 87, (3R)-N-benzyl-3-({4-[6-(3,4-difluorophenyl)imidazo[2,1-b][1,3]thiazol-5-yl]pyrimidin-2-yl}amino)piperidine-1-carboxamide]	53%		
O=C(NCc1ccco1)N1CCC[C@@H](Nc2nccc(-c3c(-c4ccc(F)c(F)c4)nc4sccn34)n2)C1 [Example 88, (3R)-3-({4-[6-(3,4-difluorophenyl)imidazo[2,1-b][1,3]thiazol-5-yl]pyrimidin-2-yl}amino)-N-(2-furylmethyl)piperidine-1-carboxamide]	54%		
COc1ccc(C(=O)N2CCC[C@@H](Nc3nccc(-c4c(-c5ccc(F)c(F)c5)nc5sccn45)n3)C2)cc1 [Example 89, 4-[6-(3,4-difluorophenyl)imidazo[2,1-b][1,3]thiazol-5-yl]-N-[(3R)-1-(4-methoxybenzoyl)piper-idin-3-yl]pyrimidin-2-amine]	40%		
Cc1cn2c(-c3ccnc(N[C@@H]4CCCN(S(=O)(=O)c5ccc(F)cc5)C4)n3)c(-c3ccc(F)cc3)nc2s1 [Example 91, 4-[6-(4-fluorophenyl)-2-methylimidazo[2,1-b][1,3]thiazol-5-yl]-N-{(3R)-1-[(4-fluorophenyl)sulfonyl]piper-idin-3-yl}pyrimidin-2-amine]		352 nM	
Cc1cn2c(-c3ccnc(N[C@@H]4CCCN(C(=O)NCc5ccco5)C4)n3)c(-c3ccc(F)cc3)nc2s1 [Example 93, (3R)-3-({4-[6-(4-fluoro-phenyl)-2-methylimidazo[2,1-b][1,3]thiazol-5-yl]pyrimidin-2-yl}amino)-N-(2-furylmethyl)piperidine-1-carboxamide]	61%		
Cc1cn2c(-c3ccnc(N[C@@H]4CCCN(C(=O)Nc5ccc(N(C)C)cc5)C4)n3)c(-c3ccc(F)cc3)nc2s1 [Example 94, (3R)-N-[4-(dimethyl-amino)phenyl]-3-({4-[6-(4-fluorophenyl)-2-methylimidazo[2,1-b][1,3]thiazol-5-yl]pyrimidin-2-yl}amino)piperidine-1-carboxamide]		> 3000 nM	
COc1cccc(-c2nc3sccn3c2-c2ccnc(N[C@@H]3CCCN(S(=O)(=O)c4ccc(Cl)cc4)C3)n2)c1 [Example 95, N-{(3R)-1-[(4-chlorophenyl)sulfonyl]piperidin-3-yl}-4-[6-(3-methoxyphenyl)imidazo[2,1-b][1,3]thiazol-5-yl]pyrimidin-2-amine]		147 nM	
Cc1cn2c(-c3ccnc(N[C@@H]4CCCN(S(=O)(=O)c5ccc(Cl)cc5)C4)n3)c(-c3ccc(F)cc3)nc2s1 [Example 96, N-{(3R)-1-[(4-chlorophenyl)sulfonyl]piperidin-3-yl}-4-[6-(4-fluorophenyl)-2-methyl-imidazo[2,1-b][1,3]thiazol-5-yl]pyrimidin-2-amine]		26 nM	
c1ccc2cc(-c3nc4sccn4c3-c3ccnc(N[C@@H]4CCCNC4)n3)ccc2c1 [Example 97, 4-[6-(2-naphthyl)imidazo[2,1-b][1,3]thiazol-5-yl]-N-[(3R)-piperidin-3-yl]pyrimidin-2-amine]		314 nM	
O=S(=O)(c1ccc(Cl)cc1)N1CCC[C@@H](Nc2nccc(-c3c(-c4ccc(F)cc4)nc4sccn34)n2)C1 [Example 98, N-{(3R)-1-[(4-chlorophenyl)sulfonyl]piperidin-3-yl}-4-[6(4-fluorophenyl)imidazo[2,1-b][1,3]thiazol-5-yl]pyrimidin-2-amine]		36 nM	
c1cc(-c2c(-c3ccc4c(c3)OCCO4)nc3sccn23)nc(N[C@@H]2CCCNC2)n1 [Example 99, 4-[6-(2,3-dihydro-1,4-benzodioxin-6-yl)imidazo[2,1-b][1,3]thiazol-5-yl]-N-[(3R)-piperidin-3-yl]pyrimidin-2-amine]	29%		
COc1cc(-c2nc3sccn3c2-c2ccnc(N[C@@H]3CCCN(S(=O)(=O)c4ccc(Cl)cc4)C3)n2)ccc1Cl [Example 100, 4-[6-(4-chloro-3-methoxyphenyl)imidazo[2,1-b][1,3]thiazol-5-yl]-N-{(3R)-1-[(4-chlorophenyl)sulfonyl]piper-idin-3-yl}pyrimidin-2-amine]	40%		
